{
  "source": "patent US6605637B1",
  "about": "“Lipoic acid derivatives, their preparation, and pharmaceutical compositions containing them” (Societe de Conseils de Recherches et d'Applications …, priority 1999, dated 2003)",
  "note": "Where a name gives a salt, the structure may show the parent alone.",
  "data": [
    {"test_system": "HT-22 cells", "assay": "Protection of HT-22 cells from oxidation stress induced by glutamate (MTT viability)", "assay_type": "cell-based", "settings": "HT-22 mouse hippocampal line; glutamate 5 mM; viability after 24 h by MTT", "procedure": "Study of the Effects on the Oxidation Stress Induced by Glutamate on Cells in Culture (HT-22).\nThe inhibitory activity of the products of the invention is determined by measuring their ability to protect the cells of a mouse hippocampal line (HT-22) of an oxidation stress caused by glutamate. The biosynthesis of glutathione, an essential element of cell detoxification of free radicals, requires the active transport of cystine to the interior of the cell. The glutamate by opposing the penetration of cystine causes a reduction in the level of glutathione which leads to the death of the cell due to oxidation stress (Davis, J. B. and Maher, P., Brain Res., (1994) 652: 169-173; Murphy, T. H. et al., Neuron, (1989) 2: 1547-1558). The cells are cultured at 37° C. in a DMEM medium with 10% of foetal calf serum added to it. The tests are carried out in 96-well plates containing 5000 cells per well. The glutamate (5 mM) is added to the medium containing or not containing the products to be tested. The cell viability is tested after 24 h by the MTT method (Hansen, M. B. et al., J Immunol. Methods (1989), 119, 203-210). The ability of the compounds to protect the cells from the toxic action of the glutamate is estimated in EC50, calculated relative to the viability of cells which have not been subjected to the action of glutamate considered as 100% viability.", "units": {"EC50": "µM"}, "values": [
      {"smiles": "N=C(Nc1ccc(CCNC(=O)CC2CCSS2)cc1)c1cccs1", "note": "(stereo not shown) [Example 3, N-{2-{4[[(2-Thienyl)(imino)methyl]amino]phenyl}ethyl}-1,2-dithiolane-3-acetamide Hydrochloride]", "EC50": "< 30"},
      {"smiles": "N=C(Nc1ccc(CCNC(=O)CCCCC2CCSS2)cc1)c1cccs1", "note": "(stereo not shown) [Example 2, N-{2-{4[[(2-Thienyl)(imino)methyl]amino]phenyl}ethyl}-1,2-dithiolane-3-pentanamide]", "EC50": "< 30"},
      {"smiles": "Cc1cc(N)nc(CCCCNC(=O)CC2CCSS2)c1", "note": "(stereo not shown) [Example 5, N-[4-(6-Amino-4-methyl-2-pyridinyl)butyl]-1,2-dithiolane-3-acetamide Fumarate]", "EC50": "< 30"},
      {"smiles": "N=C(Nc1ccc(NC(=O)CCCCC2CCSS2)cc1)c1cccs1", "note": "(stereo not shown) [Example 1, N-{4-[[(2-Thienyl)(imino)methyl]amino]phenyl}-1,2-dithiolane-3-pentanamide Hydrochloride]", "EC50": "< 30"}
    ]}
  ]
}
